Experiments:
[1] = Photodiode array (PDA) detection in mouse brain; format: in vivo; conditions: FIG. 1
Text: FIG. 1 is a graph showing a photodiode array (PDA) spectrum of WHYKD8 in mouse brain.
A photodiode array (PDA) was used to detect WHYKD8 in mouse brain (FIG. 1).

Autophagy Markers = experiment: Autophagy markers (Cyto-ID assay) in HEK 293 cells expressing mKate2 Tau; format: cell-based, Human; conditions: HEK 293 mKate2 Tau cells
Method: The dye used in the kit prevents its accumulation within lysosomes, but enables labelling of vacuoles associated with the autophagy pathway using the LC3 biomarker.
The test compounds (along with CytoID™ dye and Hoechst stain) were added to the cells and incubated for 3 hours. Reference compounds were also used in each plate, Rapamycin was used for autophagy induction and chloroquine was used for lysosomal inhibition. After 3 hours test compound was aspirated off and kept. Cells were then washed and read using a fluorescence plate reader. Hoescht, Cyto-ID™ and mKate2 were measured using 3 distinct wavelengths on the plate reader. The Hoescht measurement allowed normalisation of results across wells. After reading, test compound was re-added and the cells are left for a further 21 hours. At the 24 hour time point cells were once again washed and plates read using the fluorescence plate reader.
2) Test samples were prepared in warm FluoroBrite™ DMEM and with 10% FBS and 1% NEAA (FB-DMEM). […]
5) Treatment plate was then washed quickly 3 times with warm FB-DMEM (100 μL/well). […] At this point, the plate was ready for reading. See details in Reading Plate section. Hoescht was read at Excitation wavelength (Ex)=355 nm & Emission wavelength (Em)=446 nm. mKate2 was read at Ex=575 nm & Em=630 nm. Cyto-ID™ was read at Ex=463 nm & Em=534 nm. […]

PLD2 = molecular target: T1, PLD2 (Homo sapiens, UniProt O14939); experiment: PLD2 activity: Proteostat/mKate2 with PLD1 inhibitor VU0150669; format: cell-based
T1 construct: endogenous in cells; host or cells: HEK 293 Jump-In cells expressing mKate2-Tau
Method: The assay was run in e18 primary cortical neurons from PLD1 or PLD2 KO mice cultured for 14 days. Alternatively, the assay can be run in the cells described above in the presence of excess PLD1 or PLD2 inhibitor to preclude that particular action from contributing to the effect of the drug.
4) On the day of experiment, cells were washed in warmed HBSS twice before media containing test compound (n=3 per compound per dose), inhibitor (355 nM ML298 or 50 nM VU0150669), or vehicle are added to the wells (1.5 mL in 6 well, 600 μL in 12 well). Plates were incubated for 24 hours at 37° C. with 5% CO2.

[2] = system: HEK 293 (Human Embryo Kidney) cell line
Method: The cells were grown in the presence of the antibiotic doxycycline. When the antibiotic is removed the cells produce Tau (which can be quantified), thus allowing the test compounds' effects on Tau's production to be compared. Doxycycline was removed for 72 hours prior to exposure to the test compounds to promote sufficient Tau production. Cells were subsequently plated into plates for each of the assays described below.

T1 sequence (O14939 whole entry): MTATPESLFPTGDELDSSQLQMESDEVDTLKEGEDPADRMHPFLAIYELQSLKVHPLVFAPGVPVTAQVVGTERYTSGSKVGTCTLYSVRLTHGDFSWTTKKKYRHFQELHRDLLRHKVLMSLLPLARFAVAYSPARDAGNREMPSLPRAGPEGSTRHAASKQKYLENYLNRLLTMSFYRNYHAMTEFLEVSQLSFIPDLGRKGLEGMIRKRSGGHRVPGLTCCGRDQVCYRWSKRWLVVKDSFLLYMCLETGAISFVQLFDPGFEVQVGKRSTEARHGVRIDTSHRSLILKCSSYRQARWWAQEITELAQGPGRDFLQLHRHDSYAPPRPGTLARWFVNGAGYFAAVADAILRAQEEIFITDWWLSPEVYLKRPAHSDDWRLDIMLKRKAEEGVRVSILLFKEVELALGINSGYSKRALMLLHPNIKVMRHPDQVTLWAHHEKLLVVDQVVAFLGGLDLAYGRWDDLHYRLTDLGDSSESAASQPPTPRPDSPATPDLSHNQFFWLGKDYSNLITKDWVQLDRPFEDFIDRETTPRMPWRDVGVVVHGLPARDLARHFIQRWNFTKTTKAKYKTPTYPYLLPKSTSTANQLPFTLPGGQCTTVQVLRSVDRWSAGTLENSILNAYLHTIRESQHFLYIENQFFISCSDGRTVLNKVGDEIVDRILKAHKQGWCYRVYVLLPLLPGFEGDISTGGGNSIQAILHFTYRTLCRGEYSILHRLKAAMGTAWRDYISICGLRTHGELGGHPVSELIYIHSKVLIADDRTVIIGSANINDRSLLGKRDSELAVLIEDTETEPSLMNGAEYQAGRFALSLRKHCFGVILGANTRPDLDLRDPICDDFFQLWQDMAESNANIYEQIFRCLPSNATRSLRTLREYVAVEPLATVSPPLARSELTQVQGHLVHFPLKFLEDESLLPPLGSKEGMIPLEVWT

Compound: Oc1ccc(CCNc2ncnc3ccc(Cl)cc23)cc1 [WHYKD8]
- detection in mouse brain by photodiode array [1]: readily detected

Compound: Fc1ccc2ncnc(SC3CCOCC3)c2c1 [WHYKD19]
- % Increase Autophagy Markers (Autophagy Markers): 350%

Compound: c1cnc2c(SC3CCCC3)ncnc2c1 [WHYKD36]
- Proteostat PLD2/PLD1 ratio (PLD2; ratio of Proteostat values): 1.5
- mKate2 PLD2/PLD1 ratio (PLD2; ratio of mKate2 values): 1.7
- CC50 [2]: 67 µM

— patent publication US11230558B2, “Activators of autophagic flux and phospholipase D and clearance of protein aggregates including tau and treatment of proteinopathies” (THE TRUSTEES OF COLUMBIA UNIVERSITY IN THE CITY OF NEW YORK, priority 2015, dated 2022)
